In patent US20260007625A1, “Compounds for the Treatment of Neuromuscular Disorders” (NMD PHARMA A/S, priority 2022, published 2026):

What was measured:
[1] = tested on: isolated rat soleus muscles exposed to tubocurarine; test: Recovery of nerve-stimulated contractile force in isolated rat soleus nerve-muscle preparation after tubocurarine; details: tubocurarine 115 nM, after 40 mins of compound exposure
Method: The current disclosure relates to compounds that inhibit CIC-1 ion channels and increase muscle excitability and thereby improve muscle function in clinical conditions where muscle activation is failing. Such conditions result in loss of contractile function of skeletal muscle, weakness and excessive fatigue. In this series of experiments the compounds were tested for their ability to restore contractile function of isolated rat muscle when the neuromuscular transmission had been compromised akin to neuromuscular disorders.
Experimentally, soleus muscles from 4-5 week old rats were isolated with the motor nerve remaining attached. The nerve-muscle preparations were mounted in experimental setups that enabled electrical stimulation of the motor nerve. Stimulation of the motor nerve led to activation of the muscle fibres and ensuing force production that was recorded. The nerve-muscle preparations were also in these experiments incubated in the standard Krebs Ringer (see example 15) and the solution was heated to 30° C. and continuously equilibrated with a mixture of 95% O2 and 5% CO2, PH ˜7.4.
After mounting the nerve-muscle preparation in the experimental setup, the contractile function of the muscle was initially assessed under the control conditions. Sub-maximal concentration of tubocurarine (115 nM), an acetylcholine receptor antagonist, was then added to the experimental bath to impose partial inhibition of the ability of the motor nerve to activate the muscle fibres. The experimental condition mimics the failing neuromuscular transmission in a range of neuromuscular disorders. After addition of tubocurarine the contractile force declined over the next 90 minutes to 10-50% of the control force. The test compound was then added to obtain the required compound concentration in the bath and the contractile force recovered was measured. To quantify the ability of the compound to restore force the percentage of the initial force that was restored was determined after 40 mins of compound exposure and the point increase is reported in Table 2.

CIC-1 ion channel = target: T1, CIC-1 ion channel (Rattus norvegicus, UniProt P35524); test: Electrophysiological measurement (Gm, three micro-electrodes) of compound inhibition of CIC-1 in rat soleus muscle fibres; assay type: cell-based; details: Gm in whole rat soleus muscle fibres, approx. 30° C., four increasing compound concentrations
T1 construct: from tissue; host or cells: intact soleus muscle of 12-14 week old Wistar rats
T1 sequence (P35524 1-994): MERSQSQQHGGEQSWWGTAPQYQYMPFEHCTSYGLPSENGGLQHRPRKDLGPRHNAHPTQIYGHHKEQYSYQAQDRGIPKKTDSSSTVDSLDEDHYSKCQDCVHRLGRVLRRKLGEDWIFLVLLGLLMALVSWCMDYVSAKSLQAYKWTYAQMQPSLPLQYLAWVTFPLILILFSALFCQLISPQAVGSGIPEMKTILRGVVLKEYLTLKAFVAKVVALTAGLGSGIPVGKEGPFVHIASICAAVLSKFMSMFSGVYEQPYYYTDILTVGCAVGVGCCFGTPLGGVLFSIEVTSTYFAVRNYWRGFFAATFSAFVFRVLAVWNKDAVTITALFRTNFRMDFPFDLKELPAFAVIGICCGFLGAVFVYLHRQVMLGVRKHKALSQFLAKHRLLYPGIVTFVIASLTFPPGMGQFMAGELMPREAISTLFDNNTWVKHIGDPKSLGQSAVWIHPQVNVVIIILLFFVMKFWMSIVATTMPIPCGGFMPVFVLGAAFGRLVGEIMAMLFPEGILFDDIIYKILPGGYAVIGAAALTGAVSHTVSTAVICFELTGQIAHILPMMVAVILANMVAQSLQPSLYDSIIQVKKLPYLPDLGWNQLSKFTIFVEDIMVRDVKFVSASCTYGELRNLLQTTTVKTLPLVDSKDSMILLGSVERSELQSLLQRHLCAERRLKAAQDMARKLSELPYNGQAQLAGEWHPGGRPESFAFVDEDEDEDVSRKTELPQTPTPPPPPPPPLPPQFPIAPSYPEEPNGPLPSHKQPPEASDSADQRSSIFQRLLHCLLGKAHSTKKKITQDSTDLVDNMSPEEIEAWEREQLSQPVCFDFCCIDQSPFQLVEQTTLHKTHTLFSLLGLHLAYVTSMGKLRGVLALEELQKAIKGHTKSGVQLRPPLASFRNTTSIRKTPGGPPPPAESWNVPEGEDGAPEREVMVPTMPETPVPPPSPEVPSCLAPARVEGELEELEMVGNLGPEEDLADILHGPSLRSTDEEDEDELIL
Method: Apparent CIC-1 affinity was reported by the concentration of compound at which 50% of the compound's full inhibition of CIC-1 was observed (EC50).
Experimentally, Gm was measured in individual fibres of whole rat soleus muscles using a three micro-electrodes technique described in this example and in full detail elsewhere (Riisager et al., Determination of cable parameters in skeletal muscle fibres during repetitive firing of action potentials. Journal of Physiology, 2014, 592, 4417-4429). Briefly, intact rat soleus muscles were dissected out from 12-14 week old Wistar rats and placed in an experimental chamber that was perfused with a standard Krebs Ringer solution containing 122 mM NaCl, 25 mM NaHCO3, 2.8 mM KCl, 1.2 mM KH2PO4, 1.2 mM MgSO4, 1.3 mM CaCl2), 5.0 mM D-glucose. During experiments, the solution was kept at approx. 30° C. and continuously equilibrated with a mixture of 95% O2 and 5% CO2, PH ˜7.4. The experimental chamber was placed in Nikon upright microscope that was used to visualize individual muscle fibres and the three electrodes (glass pipettes filled with 2 M potassium citrate). For Gm measurements, the electrodes were inserted into the same fibre with known inter-electrode distances of 0.35-0.5 mm (V1-V2, X1) and 1.1-1.5 mm (V1-V3, X3). The membrane potential of the impaled muscle fibre was recorded by all electrodes. Two of the electrodes were furthermore used to inject 50 ms current pulses of −30 nA. […] The steady state voltage deflection at each distance was divided by the magnitude of current injected (−30 nA) and the resulting transfer resistances were plotted against inter-electrode distance and the data was fitted to a mono-exponential function from which Gm could be calculated using linear cable theory.
To establish a dose response relationship, Gm was first determined in 10 muscle fibres in the absence of compound and then at four increasing compound concentrations with Gm determinations in 5-10 fibres at each concentration. The average Gm values at each concentration were plotted against compound concentration and the data was fitted to sigmoidal function to obtain an EC50 value.

Lewis rats = test: In situ isometric hindlimb force in anaesthetised rats under partial neuromuscular block by Cisatracurium; assay type: in vivo, rat; details: sodium salt, 80 Hz stimulation, Cisatracurium infusion
Method: Isometric hindlimb force was measured in 12-week old female Lewis rats in the presence and absence of compound.
Rats were placed under anaesthesia with isoflurane (2-4%), intubated and subsequently connected to a micro ventilator (Microvent 1, Hallowell EMC, US). Two stimulation electrodes were inserted through the skin to stimulate the sciatic nerve. A small incision was made proximal to the ankle, to expose the Achilles tendon, which was tied by cotton string, and connected to a force transducer (Fort250, World Precision Instruments) with adjustable position (Vernier control). The Achilles tendon was then cut distal to the attached cotton string. […]
Muscle contractile properties were assessed by applying an electrical current (under supramaximal voltage conditions) to the nerve and recording the force generated by the muscle. The muscle was stretched until maximal force was obtained, when assessed by 2 Hz stimulation. Isometric force was measured every 30 seconds at 12 Hz (Twitch), 10 pulses, and at every 5 minutes at 80 Hz (Tetanic) for 1 second (80 pulses). […] The effect of test article was assessed on its ability to increase force generated from the stimulation pattern applied. The effect was assessed in the ability to increase force per se (tetanic, 80 Hz, stimulation), and the ratio between individual twitch peaks (12 Hz stimulation). […]

Row | Compound | Point increase, percentage of initial force that was restored ([1]; test compound 50 μM) [%] | EC50 (CIC-1 ion channel) [µM] | Point increase, percentage of initial force that was restored ([1]; test compound 10 μM) [%] | also measured
1 | Cc1cc(Cl)c(OC2CC2)c(C(=O)O)c1C [Compound A-5, 3-chloro-2-cyclopropoxy-5,6-dimethylbenzoic acid] | 48 | 6.6 | – | –
2 | Cc1cc(Cl)c(OCF)c(C(=O)O)c1C [Compound A-10, 3-chloro-2-(fluoromethoxy)-5,6-dimethylbenzoic acid] | – | 4.1 | 21 | –
3 | COc1c(C)cc(F)c(OC)c1C(=O)O [Compound A-1, 3-fluoro-2,6-dimethoxy-5-methylbenzoic acid] | 19 | – | – | –
4 | COc1c(F)cc(Br)c(OC)c1C(=O)O [Compound A-2, 3-bromo-5-fluoro-2,6-dimethoxybenzoic acid] | – | – | – | Point increase, percentage of initial force that was restored ([1]; test compound 100 μM): 16%
5 | COc1c(F)cc(C)c(C)c1C(=O)O [Compound A-11, 3-fluoro-2-methoxy-5,6-dimethylbenzoic acid] | 25 | – | – | –
6 | COc1c(Br)cc(C)c(C)c1C(=O)O [Compound A-13, 3-bromo-2-methoxy-5,6-dimethylbenzoic acid] | – | 4.4 | 29 | –
7 | COc1c(Cl)cc(Cl)c(OC)c1C(=O)O [Compound A-3, 3,5-Dichloro-2,6-dimethoxybenzoic acid] | 46 | 7.4 | – | –
8 | CCOc1c(Cl)cc(C)c(C)c1C(=O)O [Compound A-12, 3-chloro-2-ethoxy-5,6-dimethylbenzoic acid] | 39 | – | – | –
9 | Cc1cc(Cl)c(OC(F)F)c(C(=O)O)c1C [Compound A-9, 3-chloro-2-(difluoromethoxy)-5,6-dimethylbenzoic acid] | 50 | 4.3 | – | –
10 | CSc1c(Cl)cc(C)c(C)c1C(=O)O [Compound A-8, 3-chloro-5,6-dimethyl-2-(methylsulphanyl)benzoic acid] | – | 3.2 | 24 | –
11 | COc1c(Cl)cc(C)c(C)c1C(=O)O [Compound A-14, 3-chloro-2-methoxy-5,6-dimethylbenzoic acid] | 44 | 3.2 | – | increase in tetanic force (Lewis rats; 10 mg/kg p.o. in PBS): 45%
12 | COc1c(C)cc(Cl)c(OC)c1C(=O)O [Compound A-7, 3-chloro-2,6-dimethoxy-5-methylbenzoic acid] | 44 | 5.3 | – | increase in tetanic force (Lewis rats; 2.5 mg/kg i.v. in PBS): 27%
13 | Cc1cc(Cl)c(OC(F)(F)F)c(C(=O)O)c1C [Compound A-4, 3-chloro-5,6-dimethyl-2-(trifluoromethoxy)benzoic acid] | – | 1.7 | 23 | –
14 | COc1c(Cl)cc(C)c(Cl)c1C(=O)O [Compound A-6, 2,5-dichloro-6-methoxy-3-methylbenzoic acid] | – | 5.8 | 28 | –
